According to patent US20210100788A1, “PALONOSETRON FORMULATIONS AND USES THEREOF” (LUXENA PHARMACEUTICALS, INC., priority 2014, published 2021):
Where a name gives a salt, the structure may show the parent alone.

Test: Particle size distribution of jet milled palonosetron fine powder by HELOS Particle Size Analyzer
Format: physicochemical
Procedure: Palonosetron HCl was milled with a 2-in pancake Jet Mill and flexible containment. The process air was nitrogen. The jet milling was conducted at Catalent Micron Technologies, Malvern, Pa., USA.
The particle size distribution of the palonosetron fine powder, prepared by jet milling, was measured by HELOS Particle Size Analyzer (Sympatec GmbH, Germany) at Micron Technologies, Inc., Malvern, Pa., USA.
The Particle Size Distribution parameters are: • D10: 0.68 μm • D50: 1.39 μm • D90: 2.89 μm • D95: 3.68 μm • D99.5: 6.92 μm • Cumulative % <9 μm: 100%

O=C1c2cccc3c2[C@H](CCC3)CN1[C@@H]1CN2CCC1CC2 [Jet Milled Palonosetron Fine Powder, Palonosetron HCl]
Cumulative % <9 μm: 100%
D10: 0.68 μm
D50: 1.39 μm
D90: 2.89 μm
D95: 3.68 μm
D99.5: 6.92 μm
